Test results as given in US11767319B2, “Crystalline forms of a selective c-kit kinase inhibitor” (Third Harmonic Bio, Inc., priority 2020, dated 2023).
Entries after “also recorded” stand apart in the source; their conditions may differ. Each block holds one compound with its values, some of them ahead of it.

Key:
Type in all cases: physicochemical
Vacuum drying of Form C = conditions: dried under vacuum
Experimental: (§1) FIG. 1F depicts a set of XRPD patterns of Form C of compound 1, comparing the originally isolated form, material after DVS experiments and material after being dried under vacuum. […] Form G was also observed after vacuum drying of Form C.
Procedure A: Form C of compound 1 was dried under vacuum at 40° C. for about 2 hours. After drying Form G was recovered.

[1] = Dynamic Vapor Sorption (DVS) of Form C
Experimental: Approximately, 10 mg of sample was placed into a mesh vapor sorption balance pan and loaded into a DVS-1/DVS Intrinsic/DVS Advantage dynamic vapor sorption balance by Surface Measurement Systems. The sample was subjected to a ramping profile from 40-90% relative humidity (RH) at 10% increments, maintaining the sample at each step until a stable weight had been achieved (dm/dt 0.004%, minimum step length 30 min, maximum step length 500 min) at 25° C. After completion of the sorption cycle, the sample was dried using the same procedure to 0% RH and then a second sorption cycle back to 40% RH. Two cycles were performed. The weight change during the sorption/desorption cycles were plotted, allowing for the hygroscopic nature of the sample to be determined. XRPD analysis was then carried out on any solid retained.
FIGS. 1D and 1E depict DVS plots of Form C of compound 1. […] Below 20% RH, Form C experienced a mass loss of 8.6%, about equal to 2 equivalents of water.
as §1

[2] = Slurry experiments in SGF; conditions: 37° C., 500 rpm
Experimental: About 200 mg of sodium chloride and about 100 mg Triton X-100 was weighted into a 100-mL volumetric flask. About 100 mL of purified water was added to the flask and the solution was sonicated until all solids were completely dissolved. 1 M HCl was added to adjust the pH to 1.8 and the solution was mixed well and the pH was checked with a pH meter.
Competitive slurry experiments were performed for Forms A, H^A, H^B, C and D in SGF. About 10 mg of each form was added into separate HPLC vials followed by addition of 1.0 mL SGF in order to form slurries. The slurries were heated to 37° C. and stirred at 500 rpm. After 2 h or 24 h, the samples were centrifuged and the solids were collected for XRPD testing.

[3] = Competitive slurry experiments among anhydrates (IPA/IPAc); conditions: at RT and 50° C., IPA/IPAc slurries
Experimental: Competitive slurry experiments were performed in IPA/IPAc at RT/50° C. between anhydrates Form A of compound 1 and Form D of compound 1. Form A of compound 1 was added into each solvent to form a slurry at RT or 50° C. and was stirred for 2 h. The slurries were then filtered to obtain saturated solution. Around 10 mg each of Form A of compound 1 and Form D of compound 1 were added into each solution to form a mixed slurry at RT or 50° C. […] The formation of Form H^A of compound 1 is postulated to be caused by residual water in the solvents or due to ambient humidity (˜35% humidity during slurry experiments).

[4] = Hydration mapping starting with Form A
Experimental: To establish the hydration map of compound 1, solutions with varying water activity (aw) were prepared and the aw was measured using a water activity meter. Table 13 below details the solvent systems investigated and their corresponding measured water activities.
23×20 mg of Form A of compound 1 was weighed into vials. 1 mL of solvent (see tables above) was added to each vial to form a slurry. After manual shaking for a few seconds, where solutions were observed, an additional ˜10 to 20 mg of solid was added to produce a slurry. Additional solid was added to the 2-MeTHF, water/2-MeTHF (1:99% v/v), acetone/water (aw of 0.92) and methanol/water (aw of 0.11) samples. All slurries were then agitated for 24 h at 25° C. After 24 h, aliquots of solid were isolated via centrifugal filtration and analysed by XRPD. The remaining slurries were agitated for a further 5 days (total of 6 days). The solids were isolated and analysed by XRPD. All identified forms were analysed by XRPD, TG/DSC and ^1H NMR (where sufficient material was available).

[5] = Ethanol/hydrocarbon mixtures slurry study
Experimental: Using the methods described above for the Form A input and amorphous input experiments, 5×20 mg of Form A slurries and 5×20 mg of amorphous input slurries were prepared by adding 1 mL of solvent (see Table 16 below) to each vial and the resulting slurries were agitated for 24 h at 25° C. After 24 h, aliquots of solid were isolated via centrifugal filtration and analysed by XRPD.

[6] = Form investigation in buffered media; conditions: for XRPD Pattern / pH (24 h): 24 h at 25° C.
Experimental: To investigate the polymorphic landscape of compound 1 in buffered systems, 5×20 mg of Form A slurries and 5×20 mg of amorphous slurries (amorphous material prepared using the method described in the above hydration mapping experiments) were prepared by adding 1 mL of buffer to each vial and the resulting slurries were agitated for 24 h at 25° C. The pH was measured post-buffer addition and after 24 h agitation. After 24 h, aliquots of solid were isolated via centrifugal filtration and analysed by XRPD.

[7] = Acetone/Water, aw 0.1363, 25° C.
[8] = Acetone/Water, aw 0.2621, 25° C.
[9] = Acetone/Water, aw 0.5455, 25° C.
[10] = EtOH/Heptane, aw 0.0300, 25° C.
[11] = Water/2-MeTHF, aw 0.5286, 25° C.

- form after vacuum drying (XRPD) (Vacuum drying of Form C): Form G
- form after DVS (XRPD) ([1]; after DVS experiments): converted into Form G
- mass loss (DVS) ([1]; below 20% RH, 25° C.): 8.6%
- total mass uptake (DVS) ([1]; between 20% and 90% RH, 25° C.): 0.6%
- XRPD at 2 h [2]: No form change; also recorded: Form C
- XRPD at 24 h [2]: No form change; also recorded: Form C
Compound: Cc1ccc(-c2noc([C@H]3C[C@@H]3F)n2)cc1NC(=O)c1cnc2ccccn12 [Form C, N-(5-(5-((1R,2S)-2-fluorocyclopropyl)-1,2,4-oxadiazol-3-yl)-2-methylphenyl)imidazo[1,2-a]pyridine-3-carboxamide]

- XRPD at 2 h [2]: No form change; also recorded: Form H^A
- XRPD at 2 h ([2]; listed as Form H^B): No form change; also recorded: Form H^B
- XRPD at 24 h [2]: No form change; also recorded: Form H^A
- XRPD at 24 h ([2]; listed as Form H^B): No form change; also recorded: Form H^B
Compound: Cc1ccc(-c2noc([C@H]3C[C@@H]3F)n2)cc1NC(=O)c1cnc2ccccn12 [Form H^A, N-(5-(5-((1R,2S)-2-fluorocyclopropyl)-1,2,4-oxadiazol-3-yl)-2-methylphenyl)imidazo[1,2-a]pyridine-3-carboxamide]
- relative thermodynamic stability [3]: thermodynamically more stable than Form A

- XRPD pattern observed, 24 h ([4]; 2-MeTHF, aw 0.0378, 25° C.): Form A
- XRPD pattern observed, 6 Days ([4]; 2-MeTHF, aw 0.0378, 25° C.): Form A
- XRPD pattern observed, 24 h [4, 7]: Form H^A
- XRPD pattern observed, 6 Days [4, 7]: Form H^A
- XRPD pattern observed, 24 h [4, 8]: Form H^A
- XRPD pattern observed, 6 Days [4, 8]: Form H^A
- XRPD pattern observed, 24 h [4, 9]: Form H^A
- XRPD pattern observed, 6 Days [4, 9]: Form H^A
- XRPD pattern observed, 6 Days ([4]; Acetone/Water, aw 0.7082, 25° C.): Form H^A
- XRPD pattern observed, 24 h [4, 10]: Form A
- XRPD pattern observed, 6 Days [4, 10]: Form A
- XRPD pattern observed, 24 h ([4]; EtOH/Water, aw 0.1580, 25° C.): Form H^A
- XRPD pattern observed, 6 Days ([4]; EtOH/Water, aw 0.1580, 25° C.): Form H^A
- XRPD pattern observed, 24 h ([4]; EtOH/Water, aw 0.3377, 25° C.): Form H^A
- XRPD pattern observed, 6 Days ([4]; EtOH/Water, aw 0.3377, 25° C.): Form H^A
- XRPD pattern observed, 24 h ([4]; EtOH/Water, aw 0.4986, 25° C.): Form H^A
- XRPD pattern observed, 6 Days ([4]; EtOH/Water, aw 0.4986, 25° C.): Form H^A
- XRPD pattern observed, 24 h ([4]; EtOH/Water, aw 0.7600, 25° C.): Form H^A
- XRPD pattern observed, 6 Days ([4]; EtOH/Water, aw 0.7600, 25° C.): Form H^A
- XRPD pattern observed, 24 h ([4]; EtOH/Water, aw 0.9005, 25° C.): Form A
- XRPD pattern observed, 24 h ([4]; MeCN/Water, aw 0.1060, 25° C.): Form H^A
- XRPD pattern observed, 6 Days ([4]; MeCN/Water, aw 0.1060, 25° C.): Form H^A
- XRPD pattern observed, 24 h ([4]; MeCN/Water, aw 0.3664, 25° C.): Form H^A
- XRPD pattern observed, 6 Days ([4]; MeCN/Water, aw 0.3664, 25° C.): Form H^A
- XRPD pattern observed, 24 h ([4]; MeCN/Water, aw 0.5573, 25° C.): Form H^A
- XRPD pattern observed, 6 Days ([4]; MeCN/Water, aw 0.5573, 25° C.): Form H^A
- XRPD pattern observed, 6 Days ([4]; MeCN/Water, aw 0.7300, 25° C.): Form H^A
- XRPD pattern observed, 24 h ([4]; MeOH/Water, aw 0.0963, 25° C.): Form H^A
- XRPD pattern observed, 6 Days ([4]; MeOH/Water, aw 0.0963, 25° C.): Form H^A
- XRPD pattern observed, 24 h ([4]; MeOH/Water, aw 0.3242, 25° C.): Form H^A
- XRPD pattern observed, 6 Days ([4]; MeOH/Water, aw 0.3242, 25° C.): Form H^A
- XRPD pattern observed, 24 h ([4]; MeOH/Water, aw 0.5145, 25° C.): Form H
- XRPD pattern observed, 6 Days ([4]; MeOH/Water, aw 0.5145, 25° C.): Form H^A
- XRPD pattern observed, 24 h ([4]; MeOH/Water, aw 0.6965, 25° C.): Form H
- XRPD pattern observed, 6 Days ([4]; MeOH/Water, aw 0.6965, 25° C.): Form H
- XRPD pattern observed, 24 h ([4]; MeOH/Water, aw 0.9294, 25° C.): Form A
- XRPD pattern observed, 6 Days ([4]; MeOH/Water, aw 0.9294, 25° C.): Form C
- XRPD pattern observed, 24 h [4, 11]: Form H^A
- XRPD pattern observed, 6 Days [4, 11]: Form H^A
- XRPD pattern observed ([5]; EtOH/Cyclohexane (50:50% v/v), aw 0.025, 24 h at 25° C.): Form A
- XRPD pattern observed ([5]; EtOH/Dodecane (50:50% v/v), aw 0.024, 24 h at 25° C.): Form A
- XRPD pattern observed ([5]; EtOH/Hexane (50:50% v/v), aw 0.018, 24 h at 25° C.): Form A
- XRPD pattern observed ([5]; EtOH/Methylcyclohexane (50:50% v/v), aw 0.019, 24 h at 25° C.): Form A
- XRPD pattern observed ([5]; EtOH/Octane (50:50% v/v), aw 0.019, 24 h at 25° C.): Form A
- XRPD at 2 h [2]: transformed to Form C
- XRPD at 24 h [2]: transformed to Form C
- XRPD Pattern ([6]; NaOH (0.2M)): Form H^A and Form C
- XRPD Pattern ([6]; pH 1.2 (HCl—KCl)): HCl Salt Form
- XRPD Pattern ([6]; pH 4.5 (acetate)): Form F
- XRPD Pattern ([6]; pH 6.8 (phosphate)): Form H^A
- XRPD Pattern ([6]; pH 8 (PBS)): Form H^A
- pH (Post-Buffer Addition) ([6]; slurry in NaOH (0.2M)): 11.98
- pH (24 h) ([6]; slurry in NaOH (0.2M)): 11.91
- pH (Post-Buffer Addition) ([6]; slurry in pH 1.2 (HCl—KCl)): 1.20
- pH (24 h) ([6]; slurry in pH 1.2 (HCl—KCl)): 1.19
- pH (Post-Buffer Addition) ([6]; slurry in pH 4.5 (acetate)): 4.63
- pH (24 h) ([6]; slurry in pH 4.5 (acetate)): 4.62
- pH (Post-Buffer Addition) ([6]; slurry in pH 6.8 (phosphate)): 6.87
- pH (24 h) ([6]; slurry in pH 6.8 (phosphate)): 6.88
- pH (Post-Buffer Addition) ([6]; slurry in pH 8 (PBS)): 8.04
- pH (24 h) ([6]; slurry in pH 8 (PBS)): 8.17
Compound: Cc1ccc(-c2noc([C@H]3C[C@@H]3F)n2)cc1NC(=O)c1cnc2ccccn12 [Form A, N-(5-(5-((1R,2S)-2-fluorocyclopropyl)-1,2,4-oxadiazol-3-yl)-2-methylphenyl)imidazo[1,2-a]pyridine-3-carboxamide]
